Earlier results in patent US20030013726A1 (priority 2000, published 2003).

Tested on: patients with disorders of initiating sleep

For `CCN(C(C)=O)c1cccc(-c2ccnc3c(C#N)cnn23)c1` [zaleplon], the “sleep stages 3 and 4 (delta sleep and deep sleep)” value (clinical studies) is given as “not impaired”, the “effectiveness for patients with disorders of initiating sleep” value (clinical study on more than 3 700 patients in the USA, Canada and Europe, including elderly people 65-85 years) is given as “very effective” and the “sleep latency estimated both by polysomnography and subjectively” value (compared with placebo, clinical studies) is given as “significantly reduced”.
